Like-named read-outs stand apart in the source and are kept apart here.
Key:
[1] = biological target: T1, GST-LXRβ ligand-binding domain (Homo sapiens, UniProt P55055, INS174Q); assay: TR-FRETβ activity assay (NCoA3 coactivator peptide recruitment); type: biochemical; settings: 1 μM 24(S)-25-epoxycholesterol as prestimulating agonist; inverse agonist unless *
T1 construct: amino acids 156-461; NP009052; made in house; host or cells: E. coli
T1 sequence (P55055 with tags, fused parts or gaps INS174Q limits assumed): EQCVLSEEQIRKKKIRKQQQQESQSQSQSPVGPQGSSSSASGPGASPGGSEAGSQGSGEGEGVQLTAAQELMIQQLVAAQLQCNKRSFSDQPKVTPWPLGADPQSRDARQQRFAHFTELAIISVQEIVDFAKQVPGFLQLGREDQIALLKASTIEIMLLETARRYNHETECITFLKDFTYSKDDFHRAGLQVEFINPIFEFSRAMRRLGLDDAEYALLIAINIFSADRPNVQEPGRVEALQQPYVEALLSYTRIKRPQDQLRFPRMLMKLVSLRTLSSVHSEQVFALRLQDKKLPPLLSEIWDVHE
How it was run: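 E. coli-expressed GST-LXRβ LBD (aa 156-461, 76 nM) with biotinylated NCoA3 peptide (400 nM), anti-GST-Tb cryptate donor and streptavidin-XL665 acceptor in 240 mM KCl, BSA, 0.002% Triton X-100. Equilibrated 1 h at 4° C; TR-FRET read at 615/665 nm, triplicates.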

[2] = biological target: T2, LXRα ligand-binding domain (LBD) (Homo sapiens, UniProt Q13133); assay: LXR Gal4 reporter transient transfection assay, mammalian two-hybrid, LBD-M2H Gal4α; type: cell-based; settings: HEK293 cells; inverse agonist unless *
T2 construct: expressed in transfected cells; host or cells: HEK293
T2 sequence (Q13133 155-447): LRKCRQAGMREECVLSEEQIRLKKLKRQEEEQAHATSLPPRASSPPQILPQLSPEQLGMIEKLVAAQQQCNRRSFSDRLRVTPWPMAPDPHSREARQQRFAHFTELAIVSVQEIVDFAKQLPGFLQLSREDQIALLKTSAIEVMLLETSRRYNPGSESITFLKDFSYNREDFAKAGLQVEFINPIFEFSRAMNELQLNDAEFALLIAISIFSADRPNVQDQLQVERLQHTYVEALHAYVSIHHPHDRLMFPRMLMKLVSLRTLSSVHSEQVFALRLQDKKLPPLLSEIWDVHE
Procedure: (§1) The tested compounds were usually dissolved, tested and stored as 20 mM stock solutions in DMSO. Since sulfonyl acetic acid derivatives tend to decarboxylate under these conditions, these stock solutions were prepared, tested and stored as 20 mM DMSO stock solutions containing 100 mM trifluoroacetic acid (5 equivalents). Sulfonyl acetic acid derivatives are shelf stable as solid at rt for long time as reported by Griesbrecht et al. (Synlett 2010:374) or Faucher et al. (J. Med. Chem. 2004; 47:18).
(§2) LXR Gal4 Reporter Transient Transfection Assays
(§3) LXRα and LXRβ activity status was determined via detection of interaction with coactivator and corepressor proteins in mammalian two-hybrid experiments (M2H). For this, via transient transfection the full length (FL) proteins of LXRα (amino acids 1-447; NP005684; SEQ ID NO:1) or LXRβ-(amino acids 1-461; NP009052; SEQ ID NO:2) or the ligand-binding domains (LBD) of LXRα (amino acids 155-447 SEQ ID NO:3) or LXR (amino acids 156-461; SEQ ID NO:4) were expressed from pCMV-AD (Stratagene) as fusions to the transcriptional activation domain of NFkB. As cofactors, domains of either the steroid receptor coactivator 1 (SRC1; amino acids 552-887; SEQ ID NO:5) or of the corepressor NCoR (amino acids 1906-2312; NP006302; SEQ ID NO:6) were expressed as fusions to the DNA binding domain of the yeast transcription factor GAL4 (from pCMV-BD; Stratagene). Interaction was monitored via activation of a coexpressed Firefly Luciferase Reporter gene under control of a promoter containing repetitive GAL4 response elements (vector pFRLuc; Stratagene). Transfection efficiency was controlled via cotransfection of constitutively active pRL-CMV Renilla reniformis luciferase reporter (Promega). HEK293 cells were grown in minimum essential medium (MEM) with 2 mM L-glutamine and Earle's balanced salt solution supplemented with 8.3% fetal bovine serum, 0.1 mM non-essential amino acids, 1 mM sodium pyruvate, at 37° C. in 5% CO2. 3.5×10^4 cells/well were plated in 96-well cell culture plates in growth medium supplemented with 8.3% fetal bovine serum for 16-20 h to—90% confluency. For transfection, medium was taken off and LXR and cofactor expressing plasmids as well as the reporter plasmids are added in 30 μL OPTIMEM/well including polyethylene-imine (PEI) as vehicle. Typical amounts of plasmids transfected/well: pCMV-AD-LXR (5 ng), pCMV-BD-cofactor (5 ng), pFR-Luc (100 ng), pRL-CMV (0.5 ng). Compound stocks were prepared in DMSO, prediluted in MEM to a total volume of 120 μL, and added 4 h after addition of the transfection mixture (final vehicle concentration not exceeding 0.2%). Cells were incubated for additional 16 h, lysed for 10 min in 1×Passive Lysis Buffer (Promega) and Firefly and Renilla luciferase activities were measured sequentially in the same cell extract using buffers containing D-luciferine and coelenterazine, respectively. Measurements of luminescence were done in a BMG-luminometer.

[3] = biological target: T3, LXRβ ligand-binding domain (LBD) (Homo sapiens, UniProt P55055, INS174Q); assay: LXR Gal4 reporter transient transfection assay, mammalian two-hybrid, LBD-M2H Gal4β; type: cell-based; settings: HEK293 cells; inverse agonist unless *
T3 construct: or LXR (amino acids 156-461); expressed in transfected cells; host or cells: HEK293
T3 sequence (P55055 with tags, fused parts or gaps INS174Q limits assumed): T1 sequence (P55055 with tags, fused parts or gaps INS174Q limits assumed)
Procedure: as §1, §2, §3

LXRα full length (FL) = biological target: T4, LXRα full length (FL) (Homo sapiens, UniProt Q13133); assay: LXR Gal4 reporter transient transfection assay, mammalian two-hybrid, FL-M2H Gal4α; type: cell-based; settings: HEK293 cells; inverse agonist unless *
T4 construct: the full length (FL) proteins of LXRα (amino acids 1-447); NP005684; expressed in transfected cells; host or cells: HEK293
T4 sequence (Q13133 1-447): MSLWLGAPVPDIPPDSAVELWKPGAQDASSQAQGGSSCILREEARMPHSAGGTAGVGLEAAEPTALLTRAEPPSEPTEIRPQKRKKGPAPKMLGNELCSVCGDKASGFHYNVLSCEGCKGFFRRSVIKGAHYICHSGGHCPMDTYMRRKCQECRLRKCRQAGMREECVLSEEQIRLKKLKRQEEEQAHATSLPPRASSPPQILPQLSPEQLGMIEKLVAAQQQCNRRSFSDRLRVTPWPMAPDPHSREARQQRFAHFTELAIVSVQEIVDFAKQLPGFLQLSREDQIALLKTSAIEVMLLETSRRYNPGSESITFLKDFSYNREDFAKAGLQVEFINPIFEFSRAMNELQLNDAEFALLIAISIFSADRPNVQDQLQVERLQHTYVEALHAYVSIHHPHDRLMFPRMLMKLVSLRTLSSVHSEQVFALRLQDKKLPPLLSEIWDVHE
How it was run: (§4)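 HEK293 cells transiently cotransfected with NFkB-AD fusions of full-length or LBD LXRα/β, GAL4-DBD fusions of SRC1 coactivator or NCoR corepressor domains, GAL4-driven firefly luciferase and Renilla control. Compound added 4 h post-transfection (≤0.2% DMSO), 16 h incubation; firefly and Renilla luminescence read sequentially.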

LXRβ full length (FL) = biological target: T5, LXRβ full length (FL) (Homo sapiens, UniProt P55055, INS174Q); assay: LXR Gal4 reporter transient transfection assay, mammalian two-hybrid, FL-M2H Gal4β; type: cell-based; settings: HEK293 cells; inverse agonist unless *
T5 construct: the full length (FL) proteins of LXRα (amino acids 1-447); NP005684; NP009052; expressed in transfected cells; host or cells: HEK293
T5 sequence (P55055 with tags, fused parts or gaps INS174Q): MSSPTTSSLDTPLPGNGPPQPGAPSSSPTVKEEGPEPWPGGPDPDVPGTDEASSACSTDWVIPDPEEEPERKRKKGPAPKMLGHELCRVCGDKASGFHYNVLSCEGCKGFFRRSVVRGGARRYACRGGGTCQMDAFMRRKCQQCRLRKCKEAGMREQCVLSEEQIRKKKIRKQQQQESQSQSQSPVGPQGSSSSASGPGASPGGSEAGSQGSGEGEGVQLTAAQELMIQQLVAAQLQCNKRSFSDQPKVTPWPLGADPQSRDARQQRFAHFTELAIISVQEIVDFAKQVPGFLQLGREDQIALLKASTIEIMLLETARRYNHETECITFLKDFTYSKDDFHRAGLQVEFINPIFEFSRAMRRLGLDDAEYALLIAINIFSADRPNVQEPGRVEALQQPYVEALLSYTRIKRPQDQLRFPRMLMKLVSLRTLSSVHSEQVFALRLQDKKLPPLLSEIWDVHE
How it was run: as §4

[4] = Pharmacokinetics in mice after single oral dosing, blood and liver exposure by LC-MS; type: in vivo, mice (C57/bl6/J); settings: single oral dose 20 mg/kg; for Kp at 12 h / Kp at 4 h: male, C57/bl6/J, mouse, liver/blood, read-out: liver/blood ratio
Procedure: The pharmacokinetics of the compounds was assessed in mice after single dosing and oral administrations. Blood and liver exposure was measured via LC-MS.
The study design was as follows:
Animals: C57/bl6/J (Janvier) males Diet: standard rodent chow Dose: 20 mg/kg Animal handling: animals were withdrawn from food at least 12 h before administration Design: single dose oral administration, n=3 animals per group Sacrifice: at stated time point (4, 12 or 24 h) after administration Bioanalytics: LC-MS of liver and blood samples

[5] = Short term HFD mouse model: liver and plasma exposure after multiple oral dosing; type: in vivo, mice (C57BL/6J); settings: C57BL/6J, HFD mice, three oral doses of 10 mg/kg each, 4 h after final dose
Source text: Short Term HFD Mouse Model:
For this, C57BL/6J were purchased from Elevage Janvier (Rennes, France) at the age of 8 weeks. After an acclimation period of two weeks, animals were prefed on a high fat diet (HFD) (Ssniff Spezialdiäten GmbH, Germany, Surwit EF D12330 mod, Cat. No. E15771-34), with 60 kcal % from fat plus 1% (w/w) extra cholesterol (Sigma-Aldrich, St. Louis, Mo.) for 5 days. Animals were maintained on this diet during treatment with LXR modulators. The test compounds were formulated in 0.5% hydroxypropylmethylcellulose (HPMC) and administered in three doses (from 1.5 to 20 mg/kg each) by oral gavage according to the following schedule: on day one, animals received treatment in the morning and the evening (ca. 17:00), on day two animals received the final treatment in the morning after a 4 h fast and were sacrificed 4 h thereafter. Animal work was conducted according to the national guidelines for animal care in Germany.
Multiple oral dosing of compounds from the present invention in mice lead to a high liver exposure with a favourable liver to plasma ratio. […] These genes are related to hepatic de-novo lipogenesis. A suppression of these genes will reduce liver fat (liver triglycerides).

SMILES	EC50 [1]	EC50 [3]	EC50 (LXRα full length (FL))	EC50 (LXRβ full length (FL))	further results
COc1cc(-c2ccc3c(c2)C(C)(C)C(=O)OC3)ccc1CN(Cc1ccc(C(F)(F)F)o1)Cc1c(C)ccc2ccccc12 [7/9]	1000 to 10000 nM	< 100 nM	–	–	EC50 [2]: 1000 to 10000 nM
Cc1ccc2ccccc2c1CN(Cc1ccc(C(F)(F)F)o1)Cc1ccc(-c2cccc(C(C)(C)C(=O)O)c2)c2nccn12 [7/15]	1000 to 10000 nM	< 100 nM	–	–	EC50 [2]: 100 to 1000 nM
COc1cc(CN(Cc2ccc(C(F)(F)F)o2)Cc2c(C)ccc3ccccc23)ccc1-c1cccc(C(C)(C)C(=O)O)c1 [22/1]	1000 to 10000 nM	100 to 1000 nM	–	–	–
Cc1ccc2ccccc2c1CN(Cc1ccc(C(F)(F)F)o1)Cc1cnc(-c2cccc(C(C)(C)C(=O)O)c2)s1 [22/2]	1000 to 10000 nM	100 to 1000 nM	–	–	–
Cc1ccc2ccccc2c1CN(Cc1ccc(-c2nc(C(C)(C)C(=O)O)cs2)cc1)Cc1ccc(C(F)(F)F)o1 [26/3]	1000 to 10000 nM	< 100 nM	–	–	–
Cc1ccc2c(F)cccc2c1C(=O)N(Cc1ccc(-c2cccc(C(C)(C)C(=O)O)c2)cc1)Cc1ccc(C(F)(F)F)o1 [27/12]	< 100 nM	–	< 100 nM	< 100 nM	Kp at 12 h ([4]; time point 12 h): 11; blood/plasma exposure ([4]; time point 12 h): 3.99 µM; liver exposure ([4]; time point 12 h): 43.7 µM
Cc1ccc2ccccc2c1CN(Cc1ccc(-c2cccc([C@@H](C)C(=O)O)c2)cc1)Cc1ccc(C(F)(F)F)o1 [27/72]	100 to 1000 nM	–	< 100 nM	–	concentration at 4 h ([5]; liver, read-out: liver exposure, 4 h): 2020 nM; Kp at 4 h ([5]; liver/plasma, read-out: liver/plasma ratio, 4 h): 1.4; concentration at 4 h ([5]; plasma, read-out: plasma exposure, 4 h): 1440 nM
Cc1ccc2ccccc2c1CN(Cc1ccc(-c2cccc(S(=O)(=O)CC(=O)O)c2)cc1)Cc1ccc(C(F)(F)F)o1 [Example 7/1]	1000 to 10000 nM	–	100 to 1000 nM	< 100 nM	Kp at 4 h ([4]; time point 4 h): 86; blood/plasma exposure ([4]; time point 4 h): 0.21 µM; liver exposure ([4]; time point 4 h): 18 µM

The next lines start with results.

EC50 [1]	EC50 [3]	EC50 (LXRα full length (FL))	EC50 (LXRβ full length (FL))	SMILES	further results
–	< 100 nM	–	–	CC(C)(C(=O)O)c1cccc(-c2ccc(CN(Cc3ccc(C(F)(F)F)o3)Cc3cccc4c3OC(F)(F)O4)cc2)c1 [25/2]	EC50 [2]: 100 to 1000 nM
100 to 1000 nM	–	< 100 nM	< 100 nM	Cc1c(CN(Cc2ccc(-c3cccc(C(C)(C)C(=O)O)c3)cc2)Cc2ccc(C(F)(F)F)o2)c2ccccc2n(C)c1=O [27/23]	Kp at 4 h ([4]; time point 4 h): 19; blood/plasma exposure ([4]; time point 4 h): 0.15 µM; liver exposure ([4]; time point 4 h): 2.9 µM
< 100 nM	–	100 to 1000 nM	100 to 1000 nM	Cc1cc(C)c(CN(Cc2ccc(-c3cccc(C(C)(C)C(=O)O)c3)cc2)Cc2ccc(C(F)(F)F)o2)c(C)c1 [Example 10]	Kp at 12 h ([4]; time point 12 h): 2.7; blood/plasma exposure ([4]; time point 12 h): 0.57 µM; liver exposure ([4]; time point 12 h): 1.5 µM
> 10000 nM	100 to 1000 nM	–	–	Cc1nc2ccccc2nc1CN(Cc1ccc(-c2cccc(C(C)(C)C(=O)O)c2)cc1)Cc1ccc(C(F)(F)F)o1 [Example 25]	–

Source: US20200131144A1, “AMINE OR (THIO)AMIDE CONTAINING LXR MODULATORS” (Phenex-FXR GmbH, priority 2017, published 2020)
